Here are results for four compounds from patent EP4592286A1, “MACROCYCLIC NITROGEN-CONTAINING CROWN ETHER COMPOUND AND USE THEREOF AS PROTEIN KINASE INHIBITOR” (Artivila Biopharma, priority 2022, dated 2024).

The term inhibition denotes the relative decrease from the control value, in per cent. A word on the IC50: it is the concentration that gives 50% inhibition. A word on the EC50: it is the concentration needed to bring the measured effect to its halfway point. A higher EC50 goes with a need for much substance. As a reminder, the solubility is the dissolved amount per volume that the medium holds. Low readings indicate a poorly soluble substance, high ones a readily soluble substance.

For one data set, the target named is LRRK2 (Homo sapiens, UniProt Q5S007). Nature of the data set: experiment of inhibiting kinase activity, LRRK2. The note with it: for inhibition at 0.01 µM: at 10 nM, read-out: inhibition rate LRRK2; for IC50: kinase activity assay, Table 3. Type of data set: biochemical. On the procedure:
(§1) The inhibition rates of tested compounds on JAK1, JAK2, JAK3, TYK2, CDK7, CDK9, EGFR (T790M) and LRRK2 kinases were measured. The test concentrations of the compounds were 10 nM and 100 nM, and the detection was performed by replicate wells. Alternatively, compounds were 3-fold serial diluted from 10 µM for 10 concentrations in replicate wells.

For a further data set, the target named is T1, LRRK2 (G2019S) (Homo sapiens, UniProt Q5S007, G2019S).
T1 construct: pcDNA5-FRT/TO-FLAG LRRK2 (G2019S, full-length); expressed in transfected cells; host or cells: HEK293T
The data set is described as follows: detection of phosphorylated S935 in HEK293T overexpressing full-length LRRK2 (G2019S). The note with it: pS935, HEK293T overexpressing LRRK2 (G2019S), 1.5 hours. The class given is cell-based. The method, then:
(§2) Detection of phosphorylated S935 in HEK293T Overexpressing full-length LRRK2 (G2019S) or wild-type LRRK2
(§3) HEK293T cells was inoculated into a 6-well plate and cultured overnight. The next day, they were transiently transfected with plasmid pcDNA5-FRT/TO-FLAG LRRK2 (G2019S, full-length) or pCMV-flag-WT LRRK2 (full-length) by using Superfect transfection reagent and cultured at 37°C and 5% CO2 for 20-24 hours. The next day, cells were collected, resuspended at a density of 0.48×10^6 cells/ml, and inoculated into a 384-well plate at 50 microliters/well. Compound or DMSO solutions (volume ratio of 0.5%) were added by Tecan, and cultured at 37°C and 5% CO2 for 1.5 hours. After 1.5 hours, the supernatant was discarded, 50 microliters of 8% PFA were added in each well to fix the cells, and the cells were incubated at room temperature for 1 hour. The plate was washed with EL406 plate washer for three times, with 115 microliters of PBST per well, and the culture plate was patted to dryness. The cells were blocked with 50 microliters/well of Licor Odyssey blocking solution (0.1% Tween 20) at room temperature for 1.5 hours. The blocking solution was discarded and the culture plate was patted to dryness. 20 microliters of primary antibody (1:1000(pS935), diluted with Licor Odyssey buffer (0.1% Tween20)) was added into each well, and incubated at 4 °C overnight. The next day, the first antibody was discarded and washing was performed with PBST for five times. 20 microliters of secondary antibody (diluted with Licor Odyssey buffer (0.1% Tween20) at 1:500 and stained with DNA at 1:2000) were added into each well, and incubated at room temperature for 1 hour. The second antibody was discarded, and washing was performed for three times with PBST. The fluorescence intensity was measured by LICOR Odyssey imager Scanner, and the data was analyzed.

The next data set deals with JAK1 (Homo sapiens, UniProt P23458). The data set is described as follows: experiment of inhibiting kinase activity (Caliper mobility shift assay), JAK1. Type of data set: biochemical. The note with it: at 10 nM; read-out: inhibition rate JAK1. Summed up:
(§4)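 Replicate wells; top concentration 10 µM, 3-fold steps, 10 points (or 10 nM/100 nM single doses). Enzyme preincubated 10 min RT with compound; ATP/substrate start; stop solution; Caliper conversion read. IC50 by Hill-slope curve fit.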

For another data set, the target named is JAK2 (Homo sapiens, UniProt O60674). Nature of the data set: experiment of inhibiting kinase activity (Caliper mobility shift assay), JAK2. The class given is biochemical. The note with it: at 10 nM; read-out: inhibition rate JAK2. Summed up: as §4
The target in another data set is T2, wild-type LRRK2 (Homo sapiens, UniProt Q5S007).
T2 construct: pCMV-flag-WT LRRK2 (full-length); expressed in transfected cells; host or cells: HEK293T
The data set is described as follows: detection of phosphorylated S935 in HEK293T overexpressing wild-type LRRK2. Type of data set: cell-based. To be noted: pS935, HEK293T overexpressing wild-type LRRK2, 1.5 hours. The method, then:
as §2, §3

For another data set, the target named is TYK2 (Homo sapiens, UniProt P29597). The data set is described as follows: experiment of inhibiting kinase activity, TYK2. The class given is biochemical. The note with it: at 10 nM; read-out: inhibition rate TYK2. On the procedure: as §1
A short description of data set [1]: measurement of the solubility of compounds in water and diluted hydrochloric acid. The class given is physicochemical. To be noted: thermodynamic from solid. On the procedure:
Example 117: measurement of the solubility of compounds in water and diluted hydrochloric acid
The compounds were dissolved in acetonitrile (LCMS pure) and prepared into standard samples having the concentration gradient of 1000 µg/mL, 500 µg/mL, 250 µg/mL, 125 µg/mL, 62.5 µg/mL, and 31.25 µg/mL.
About 1.0 mg of the powder of the compound to be tested was weighed and added to 0.3 mL of ultrapure water (pH-6), the resulting mixture was shaked thoroughly at room temperature overnight and centrifuged, and the supernatant was taken and diluted 10 times with acetonitrile. The sample was analyzed after mixing evenly.
153.8 µL of 6 M HCl was pipetted, 20 mL of water was added, and mixed evenly to prepare diluted hydrochloric acid solution A (pH-1.5). About 1.0 mg of the powder of the compound to be tested was weighed and added to 0.3 mL of diluted hydrochloric acid solution A, the resulting mixture was shaked thoroughly at room temperature for 1 hour and centrifuged, and the supernatant was taken and diluted 10 times with acetonitrile. The sample was analyzed after mixing evenly.
The standard sample and the sample to be tested were analyzed by Shimadzu LCMS-2020, where chromatographic column was Skim-psck GIST 5 µm C18 2.1*[…]; mobile phase A was water and mobile phase B was methanol; and flow rate was 0.3 mL/min. The gradient of B was as the following: 0 min: 10%; 0-1.0 min: 10%; 1.0-2.5 min: 95%; 3.0-4.0 min: 95%; 4.0-4.1 min: 10%; 4.1-6.0 min: 10%.
The relationship between the concentration and peak area of the standard sample was ploted into a standard curve, and the concentration of the sample to be tested was calibrated using this standard curve. Compound solubility = concentration of the sample to be tested × 10 [formula]

Another data set concerns the target T3, JAK3 (Homo sapiens, UniProt P52333).
T3 sequence (P52333 1-1124): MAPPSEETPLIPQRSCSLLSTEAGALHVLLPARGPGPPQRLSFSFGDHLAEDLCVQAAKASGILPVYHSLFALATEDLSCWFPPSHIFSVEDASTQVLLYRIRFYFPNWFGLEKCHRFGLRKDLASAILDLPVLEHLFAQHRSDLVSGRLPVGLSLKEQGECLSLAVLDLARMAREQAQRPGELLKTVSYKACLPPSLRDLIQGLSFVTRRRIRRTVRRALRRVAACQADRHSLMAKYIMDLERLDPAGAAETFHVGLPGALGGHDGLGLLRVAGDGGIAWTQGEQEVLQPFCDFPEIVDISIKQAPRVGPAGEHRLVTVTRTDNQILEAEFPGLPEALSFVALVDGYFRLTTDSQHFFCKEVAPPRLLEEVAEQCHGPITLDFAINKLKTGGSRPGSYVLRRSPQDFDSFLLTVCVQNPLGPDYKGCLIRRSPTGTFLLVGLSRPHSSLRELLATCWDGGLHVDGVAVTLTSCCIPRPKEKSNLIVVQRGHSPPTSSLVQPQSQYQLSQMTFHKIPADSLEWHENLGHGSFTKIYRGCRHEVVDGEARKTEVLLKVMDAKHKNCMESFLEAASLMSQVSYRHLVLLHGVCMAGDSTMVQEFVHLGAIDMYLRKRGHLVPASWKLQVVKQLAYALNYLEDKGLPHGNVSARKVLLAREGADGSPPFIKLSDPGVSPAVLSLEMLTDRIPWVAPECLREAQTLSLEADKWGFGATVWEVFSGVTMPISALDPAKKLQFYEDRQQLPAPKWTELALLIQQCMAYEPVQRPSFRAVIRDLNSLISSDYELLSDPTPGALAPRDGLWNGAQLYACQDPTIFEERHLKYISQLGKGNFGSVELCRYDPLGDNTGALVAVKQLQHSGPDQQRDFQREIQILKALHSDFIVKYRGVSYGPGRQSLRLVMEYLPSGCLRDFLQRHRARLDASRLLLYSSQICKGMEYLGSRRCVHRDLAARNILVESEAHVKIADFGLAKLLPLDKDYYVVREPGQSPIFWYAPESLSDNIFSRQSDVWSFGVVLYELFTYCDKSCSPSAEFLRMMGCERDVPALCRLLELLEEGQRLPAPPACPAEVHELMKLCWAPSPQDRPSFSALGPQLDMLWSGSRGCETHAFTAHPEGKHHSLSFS
The data set is described as follows: experiment of inhibiting kinase activity (Caliper mobility shift assay), JAK3. Type of data set: biochemical. The note with it: at 10 nM; read-out: inhibition rate JAK3. A digest of the protocol:
as §4

A further data set concerns the target CDK9 (Homo sapiens, UniProt P50750). Nature of the data set: experiment of inhibiting kinase activity (Caliper mobility shift assay), CDK9. Type of data set: biochemical. Summed up:
as §4

The subject of a further data set is MV-4-11 cells. The data set is described as follows: CDK9 cell activity test (Cell Titer-GLO cell growth inhibition), MV-4-11. The class given is cell-based. To be noted: Homo sapiens, MV4-11, 72 hours. The method, then: In these experiments, the cell line MV-4-11 was cultured in IMDM culture solution (containing 100 U/mL penicillin and 0.1 g/L streptomycin), the cell line HCC1187 was cultured in RPMI-1640 culture solution (containing 100 U/mL penicillin and 0.1 g/L streptomycin) containing 10% fetal bovine serum, the cell line Mia Paca-2 was cultured in DMEM (containing 100 U/mL penicillin and 0.1 g/L streptomycin) containing 10% fetal bovine serum and 2.5% horse serum, and the cell line A375 was cultured in RPMI-1640 culture solution (containing 100 U/mL penicillin and 0.1 g/L streptomycin) containing 10% fetal bovine serum. All cells were cultured in a saturated humidity incubator with 37 °C and 5% CO2.
When MV-4-11 cells, HCC-1187 cells, Mia Paca-2 cells and A375 cells grew to 80% -90% confleuncy, they were digested with trypsin, resuspended, counted and diluted to a certain cell density with complete medium, and inoculated into 96-well plate at 100 µL/well. With complete medium as background control, they were cultured overnight in a saturated humidity incubator with 37°C and 5% CO2. The compound was diluted to 200-fold of the final concentration using DMSO, 3 µL of DMSO storage solution of the above compound was added to 197 µL of complete medium, 50 µL of compound diluted in medium was added to cells in each well, and cultivated in a saturated humidity incubator with 37°C and 5% CO2 for 72 hours. After 72 hours, the culture plate was placed at room temperature for equilibrium, and 40 µl of Cell Titer-GLO® reagent was added to each well. The cells were lysed by mixing evenly for 2 minutes using a shaker, incubated at room temperature for 60 minutes to stabilize the chemiluminescence signal, and the chemiluminescence was read by PE EnVision microtiter plate reader. The cell growth inhibition rate Inh%=(DMSO well - compound treatment well)/(DMSO well - background well)×100 was calculated, and the cell growth IC50 value was obtained by fitting with GraphPad Prism 5 .

Structures are written as SMILES. Values after ≈ are worked out from the molar mass of the structure shown.

T2 sequence (Q5S007 whole entry): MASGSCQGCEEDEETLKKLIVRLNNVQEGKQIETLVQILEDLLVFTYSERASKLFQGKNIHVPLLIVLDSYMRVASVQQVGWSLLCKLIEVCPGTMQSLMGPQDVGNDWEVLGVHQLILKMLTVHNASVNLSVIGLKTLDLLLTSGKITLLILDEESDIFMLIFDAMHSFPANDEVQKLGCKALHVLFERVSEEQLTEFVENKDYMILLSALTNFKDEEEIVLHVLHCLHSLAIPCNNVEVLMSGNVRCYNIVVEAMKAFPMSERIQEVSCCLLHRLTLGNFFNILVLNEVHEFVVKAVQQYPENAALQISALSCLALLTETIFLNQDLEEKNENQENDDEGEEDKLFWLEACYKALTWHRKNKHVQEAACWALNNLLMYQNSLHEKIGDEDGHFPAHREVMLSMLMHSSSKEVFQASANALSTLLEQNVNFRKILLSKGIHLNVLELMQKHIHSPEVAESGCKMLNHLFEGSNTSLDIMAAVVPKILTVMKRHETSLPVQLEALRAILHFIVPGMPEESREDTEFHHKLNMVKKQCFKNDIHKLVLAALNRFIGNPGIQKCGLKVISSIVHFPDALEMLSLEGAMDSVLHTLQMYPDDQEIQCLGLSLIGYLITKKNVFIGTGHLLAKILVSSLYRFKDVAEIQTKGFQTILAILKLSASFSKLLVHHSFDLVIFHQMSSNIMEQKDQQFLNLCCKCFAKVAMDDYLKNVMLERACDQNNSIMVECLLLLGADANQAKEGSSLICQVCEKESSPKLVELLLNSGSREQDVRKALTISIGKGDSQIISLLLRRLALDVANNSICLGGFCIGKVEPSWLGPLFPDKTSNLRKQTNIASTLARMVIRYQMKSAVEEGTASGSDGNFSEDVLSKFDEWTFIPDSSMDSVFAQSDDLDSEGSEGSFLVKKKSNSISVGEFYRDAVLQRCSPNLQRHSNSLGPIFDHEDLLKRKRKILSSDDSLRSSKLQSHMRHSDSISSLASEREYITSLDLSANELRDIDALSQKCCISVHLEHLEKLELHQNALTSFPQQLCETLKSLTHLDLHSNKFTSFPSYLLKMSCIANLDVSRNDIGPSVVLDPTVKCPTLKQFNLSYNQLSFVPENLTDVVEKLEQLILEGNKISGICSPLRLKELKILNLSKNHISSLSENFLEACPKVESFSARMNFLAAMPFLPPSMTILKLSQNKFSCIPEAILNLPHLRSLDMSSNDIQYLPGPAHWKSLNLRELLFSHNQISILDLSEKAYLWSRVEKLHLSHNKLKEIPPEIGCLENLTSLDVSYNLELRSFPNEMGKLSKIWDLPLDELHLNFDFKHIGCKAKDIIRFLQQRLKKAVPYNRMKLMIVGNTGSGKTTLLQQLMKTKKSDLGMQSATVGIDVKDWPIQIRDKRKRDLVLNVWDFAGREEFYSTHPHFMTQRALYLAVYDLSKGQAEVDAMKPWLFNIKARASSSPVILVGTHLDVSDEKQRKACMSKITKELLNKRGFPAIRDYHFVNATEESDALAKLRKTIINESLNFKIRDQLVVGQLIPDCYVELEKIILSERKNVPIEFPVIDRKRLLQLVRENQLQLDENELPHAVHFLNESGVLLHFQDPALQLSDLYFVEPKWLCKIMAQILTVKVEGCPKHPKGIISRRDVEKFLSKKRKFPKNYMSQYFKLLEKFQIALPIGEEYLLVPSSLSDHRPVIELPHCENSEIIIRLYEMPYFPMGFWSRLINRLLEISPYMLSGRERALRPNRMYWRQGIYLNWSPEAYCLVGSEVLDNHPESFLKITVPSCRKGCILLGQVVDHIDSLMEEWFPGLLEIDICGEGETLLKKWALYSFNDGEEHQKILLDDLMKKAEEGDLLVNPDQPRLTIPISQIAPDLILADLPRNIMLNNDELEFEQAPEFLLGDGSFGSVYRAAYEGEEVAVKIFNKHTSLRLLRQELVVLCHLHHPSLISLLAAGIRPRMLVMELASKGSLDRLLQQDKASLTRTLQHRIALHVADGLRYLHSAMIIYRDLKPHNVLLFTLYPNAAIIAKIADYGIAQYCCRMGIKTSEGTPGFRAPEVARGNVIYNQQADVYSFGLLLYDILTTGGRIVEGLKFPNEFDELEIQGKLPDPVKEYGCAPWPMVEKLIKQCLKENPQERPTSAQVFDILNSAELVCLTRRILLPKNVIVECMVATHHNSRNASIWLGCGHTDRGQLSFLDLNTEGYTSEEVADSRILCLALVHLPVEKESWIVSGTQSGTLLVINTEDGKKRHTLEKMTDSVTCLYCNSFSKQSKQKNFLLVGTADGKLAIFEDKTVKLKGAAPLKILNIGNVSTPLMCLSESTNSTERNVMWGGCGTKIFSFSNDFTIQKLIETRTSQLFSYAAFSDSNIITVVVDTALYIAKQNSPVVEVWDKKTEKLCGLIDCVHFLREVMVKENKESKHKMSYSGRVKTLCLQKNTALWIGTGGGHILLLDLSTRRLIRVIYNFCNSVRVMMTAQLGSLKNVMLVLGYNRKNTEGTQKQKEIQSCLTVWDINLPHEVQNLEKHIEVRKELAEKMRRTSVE
LRRK2, sequence (Q5S007 whole entry): as above
T1 sequence (Q5S007 whole entry G2019S): as the sequence (Q5S007 whole entry) above, with G2019S counted along it
JAK2, sequence (O60674 whole entry): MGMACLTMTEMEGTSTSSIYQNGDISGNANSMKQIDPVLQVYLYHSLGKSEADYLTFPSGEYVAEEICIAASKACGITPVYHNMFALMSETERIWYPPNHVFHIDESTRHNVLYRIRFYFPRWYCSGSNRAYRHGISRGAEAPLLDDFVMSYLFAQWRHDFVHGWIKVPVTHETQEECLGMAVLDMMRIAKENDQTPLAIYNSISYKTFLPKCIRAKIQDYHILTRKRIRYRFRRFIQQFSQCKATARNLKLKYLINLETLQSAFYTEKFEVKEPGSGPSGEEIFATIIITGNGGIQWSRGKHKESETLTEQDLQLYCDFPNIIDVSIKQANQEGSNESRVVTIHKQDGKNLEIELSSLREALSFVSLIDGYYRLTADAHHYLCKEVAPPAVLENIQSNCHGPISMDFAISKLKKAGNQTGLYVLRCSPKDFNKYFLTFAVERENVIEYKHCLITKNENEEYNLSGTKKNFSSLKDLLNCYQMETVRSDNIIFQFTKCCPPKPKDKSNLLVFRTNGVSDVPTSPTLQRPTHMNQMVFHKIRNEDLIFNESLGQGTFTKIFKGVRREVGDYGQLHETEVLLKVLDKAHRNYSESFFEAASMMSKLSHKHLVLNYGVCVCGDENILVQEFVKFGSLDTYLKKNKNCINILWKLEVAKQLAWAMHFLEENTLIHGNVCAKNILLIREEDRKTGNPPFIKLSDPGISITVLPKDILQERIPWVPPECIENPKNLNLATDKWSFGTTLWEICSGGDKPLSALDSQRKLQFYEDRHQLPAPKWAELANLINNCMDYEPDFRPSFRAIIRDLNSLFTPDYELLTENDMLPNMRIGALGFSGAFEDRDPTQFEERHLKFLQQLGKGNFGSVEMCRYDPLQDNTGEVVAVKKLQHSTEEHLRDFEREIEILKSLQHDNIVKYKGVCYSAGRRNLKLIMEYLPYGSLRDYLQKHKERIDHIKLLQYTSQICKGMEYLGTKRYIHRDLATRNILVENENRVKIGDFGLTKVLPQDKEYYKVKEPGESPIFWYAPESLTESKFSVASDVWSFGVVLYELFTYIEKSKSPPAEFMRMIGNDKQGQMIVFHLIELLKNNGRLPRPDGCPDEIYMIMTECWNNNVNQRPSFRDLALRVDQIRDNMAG
TYK2, sequence (P29597 whole entry): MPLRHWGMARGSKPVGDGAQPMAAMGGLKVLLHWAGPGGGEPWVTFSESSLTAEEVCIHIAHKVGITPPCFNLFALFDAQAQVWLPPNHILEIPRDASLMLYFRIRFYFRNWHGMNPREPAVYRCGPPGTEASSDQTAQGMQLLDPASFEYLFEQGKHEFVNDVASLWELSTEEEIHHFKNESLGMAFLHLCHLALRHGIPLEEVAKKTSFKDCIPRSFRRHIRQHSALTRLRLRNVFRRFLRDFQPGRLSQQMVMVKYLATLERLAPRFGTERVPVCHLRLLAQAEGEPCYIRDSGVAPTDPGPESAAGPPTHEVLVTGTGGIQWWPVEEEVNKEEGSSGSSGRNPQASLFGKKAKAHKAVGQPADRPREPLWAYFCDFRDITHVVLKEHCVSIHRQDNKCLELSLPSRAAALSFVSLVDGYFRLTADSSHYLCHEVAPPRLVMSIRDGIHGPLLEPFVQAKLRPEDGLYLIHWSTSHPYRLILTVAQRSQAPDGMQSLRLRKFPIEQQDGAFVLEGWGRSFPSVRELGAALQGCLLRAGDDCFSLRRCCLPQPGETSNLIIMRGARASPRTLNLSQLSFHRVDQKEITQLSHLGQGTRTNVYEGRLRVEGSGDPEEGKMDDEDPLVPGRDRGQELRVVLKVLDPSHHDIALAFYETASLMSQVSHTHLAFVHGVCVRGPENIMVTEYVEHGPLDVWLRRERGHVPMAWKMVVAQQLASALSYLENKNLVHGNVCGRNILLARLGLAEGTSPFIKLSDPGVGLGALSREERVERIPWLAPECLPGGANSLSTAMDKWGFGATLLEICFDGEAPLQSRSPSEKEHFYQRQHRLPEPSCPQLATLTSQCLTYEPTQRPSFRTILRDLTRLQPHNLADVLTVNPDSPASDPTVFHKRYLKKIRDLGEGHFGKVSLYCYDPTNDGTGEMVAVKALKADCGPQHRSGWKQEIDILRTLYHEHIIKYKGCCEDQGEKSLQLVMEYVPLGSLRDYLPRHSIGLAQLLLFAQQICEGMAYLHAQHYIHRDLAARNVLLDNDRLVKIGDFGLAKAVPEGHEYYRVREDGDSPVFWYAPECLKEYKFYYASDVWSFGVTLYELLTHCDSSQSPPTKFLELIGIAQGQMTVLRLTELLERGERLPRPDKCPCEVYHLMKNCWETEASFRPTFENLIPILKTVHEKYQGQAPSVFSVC

`CN1CCOc2ccc(Nc3ncc(C(F)(F)F)c(Nc4ccccc4P(C)(C)=O)n3)cc2OCC1` [Example 83, dimethyl(2-((2-((4-methyl-3,4,5,6-tetrahydro-2H-benzo[b][1,4,7]dioxazolin-9-yl)amino)-5-(trifluoromethyl)pyrimidin-4-yl)amino)phenyl)phosphine oxide]: the inhibition at 0.01 µM on LRRK2 was over 80%; at JAK1, 25 to 39%; at JAK2, over 80%; on TYK2 it was 40 to 79%. Also, the IC50 against LRRK2 was under 50 nM. Also, the concentration giving a half-maximal response (EC50) on LRRK2 (G2019S) and at wild-type LRRK2 was under 500 nM in each case.

On to `CN1CCOCCOc2ccc(Nc3nc(O[C@H]4CC[C@@](C)(O)CC4)c4cc[nH]c4n3)cc2OCC1` [Example 6, 1-methyl-4-((2-((7-methyl-2,3,6,7,8,9-hexahydro-5H-benzo[b][1,4,7]trioxa[10]azacyclododecan-12-yl)amino)-7H-pyrrolo[2,3-d]pyrimidin-4-yl)oxy)cyclohexanol], for which the IC50 against LRRK2 is under 50 nM. Besides, the solubility at 1 h in data set [1] (simulated gastric fluid, diluted hydrochloric acid solution A (pH-1.5), room temperature, 1 hour) is over 3070 µg/mL. The amount in solution in data set [1] (ultrapure water (pH-6), room temperature overnight) (solubility) came to 368 µg/mL (≈ 740 µM). For the same compound, the EC50 on LRRK2 (G2019S) and on wild-type LRRK2 was under 500 nM each time.

`CN1CCOc2ccc(Nc3nc(Nc4ccccc4P(C)(C)=O)c4cc[nH]c4n3)cc2OCC1` [Example 73, dimethyl(2-((2-((4-methyl-3,4,5,6-tetrahydro-2H-benzo[b][1,4,7]dioxazolin-9-yl)amino)-7H-pyrrolo[2,3-d]pyrimidin-4-yl)amino)phenyl)phosphine oxide]: the inhibition at 0.01 µM on LRRK2 is over 80%; at JAK3 it was over 80%; at JAK2, over 80%; on TYK2 it was 40 to 79%. Also, the IC50 against LRRK2 is under 50 nM. The EC50 at LRRK2 (G2019S) and at wild-type LRRK2 was under 500 nM in each case.

Turning to `COc1ccc(F)cc1-c1nc(Nc2ccc3c(c2)OCCN(C)CCOCCO3)ncc1F` [Example 114, N-(5-fluoro-4-(5-fluoro-2-methoxyphenyl)pyrimidin-2-yl)-7-methyl-2,3,6,7,8,9-hexahydro-5H-benzo[b][1,4,7]trioxa[10]azacyclododecan-12-amine], the inhibition at 0.01 µM on CDK9 (at 10 nM, read-out: inhibition rate CDK9) was 40 to 79%. The half-inhibitory concentration (IC50) was under 50 nM at CDK9 (kinase activity assay, Table 3) and 100 to 1000 nM with MV-4-11 cells.
